Experiments:
MDA-MB-231 cells = assay: Cell spreading and F-actin visualization on fibronectin (phalloidin); format: cell-based, human; details: 5 μM, two hours
Text: FIGS. 1A to 1E show a schematics of an exemplary drug screen for antivascular agent described herein, e.g., dehydro-alpha-lapachone (DAL) and effects of DAL on cell adhesion properties. […] Of the 50,000 compounds screened, 86 compounds were selected to test in the secondary assays. Only compounds that made MDA-MB-231 cells more rounded, with less spreading than control cells, and interfered with actin regulation were selected for further study. All these selected small molecules were further passed through a number of filtering toxicity assays to eliminate toxic compounds. […] The non-toxic compounds were then analyzed in a zebrafish model. […]
A cell-based readout system was used for compound selection. […] As a further test of toxicity, DAL was injected intraperitoneally at 100 mg/kg in SCID mice and signs of toxicity including cachexia, ruffled fur, diarrhea, anorexia, skin ulceration, and toxic death were monitored.
A screening strategy was developed to identify potential agents that target adhesion of endothelial cells or cancer cells to their substrate. […] The initial screening step quantified the number of cells remaining attached to their wells following incubation with each compound and subsequent washing steps. […] The agents that affect cell adhesion can be monitored through remodeling of actin filaments. […] Changes in actin assembly and cell shape after treatment with 12 compounds were determined. […]

Rac1 = target: T1, Rac1 (Homo sapiens, UniProt P63000); assay: Rac1 activation pull-down assay (PAK-PBD) in HUVECs; format: cell-based; details: various concentrations 30 minutes, VEGF stimulated
T1 construct: endogenous in cells; host or cells: HUVEC
Experimental: Rac1 and cdc42 activities were measured with a Rac1 (BK035) activation assay biochem kit (Cytoskeleton) according to the manufacturer protocol. In brief, human umbilical vein endothelial cells (HUVECs) were bovine brain extract-starved for 12 hours in 1% FBS-EGM (Lonza) and pretreated with various concentrations of DAL for 30 minutes at 37° C. The HUVECs were then stimulated with VEGF at […] for 15 minutes at 37° C. After stimulation, the cells were immediately incubated on ice, washed twice with PBS, and lysed with lysis buffer. The lysates were pre-cleared and added with 15 μl of PAK-PBD beads for pull-down of activated Rac1 or cdc42. After rocking at 4° C. for 1 hour, the beads were washed once and boiled at 100° C. for 2 minutes. The protein lysates were then resolved in a 8-16% gradient gel (Invitrogen) and transferred to a PVDF membrane. Primary antibodies (anti-Rac1, 1:1000, cytoskeleton or anti-cdc42, 1:1000, cell signaling) were added to bind to the protein overnight at 4° C., followed by incubation with HRP-conjugated secondary antibodies. Protein activity was measured by the standard ECL method (Amersham).
Without wishing to be bound by theory, DAL brings about its antivascular effects by destabilizing cell adhesion through the actin cytoskeleton. […] Therefore, potential targets of DAL in signaling pathways involved in actin remodeling were evaluated. […]

In the case of `CC1(C)C=CC2=C(O1)C(=O)c1ccccc1C2=O` [DAL, dehydro-alpha-lapachone], the “cell spreading, size and shape on fibronectin-coated plates” value (MDA-MB-231 cells) is reported as “significantly smaller than control cells and had a rounded shape”, the F-actin distribution (MDA-MB-231 cells; phalloidin) is reported as “actin was accumulated close to the membrane” and the Rac1 activity (Rac1) is reported as “decreased Rac1 activity in a concentration-dependent manner”.
